{"source": "patent US12410133B2", "about": "“Crystalline (r)-5-carbamoylpyridin-3-yl-2-methyl-4-(3-(trifluoromethoxy)benzyl)piperazine-1-carboxylate, compositions and methods of use thereof” (Celgene Corporation, priority 2018, dated 2025)", "type_in_all_cases": "physicochemical", "key": {"[1]": {"test": "pKa detection by Sirius T3", "conditions": "Sirius T3, range 2.0 to 12.0, in triplicate; read-out: Measured pKa value", "procedure": "A summary of baseline solid state characterization results of crystalline (R)-5-carbamoylpyridin-3-yl-2-methyl-4-(3-(trifluoromethoxy)benzyl)piperazine-1-carboxylate Form A, including pKa, partition coefficient (log D7.4) measurement and 2-hrs equilibrium solubility in FaSSIF and FeSSIF (version 2) are provided herein. […] Log D7.4 was measured with the solvent system of pH 7.4 phosphate buffer and n-octanol by shake-flask method. Meanwhile, 2-hrs equilibrium solubility of (R)-5-carbamoylpyridin-3-yl-2-methyl-4-(3-(trifluoromethoxy)benzyl)piperazine-1-carboxylate in FaSSIF and FeSSIF (version 2) was measured to be 0.12 and 0.080 mg/mL."}, "[2]": {"test": "Competitive slurry study of forms A to E in water", "conditions": "room temperature, 7 days", "procedure": "A competitive slurry study of all known forms A to E was performed in water at room temperature to understand the thermodynamic stability relationship among these forms. Form A was used to saturate the water before it was filtered to obtain a near-saturated solution. Equal amounts of each form (A to E) were weighed and then mixed with the prepared near-saturated solution to form a new suspension, which was stirred magnetically (˜1000 rpm) at room temperature for 7 days."}, "[3]": {"test": "Solution stability test of Form A in physiologically relevant media at 37° C.", "parameters": "unit not given here", "procedure": "A solution stability test of Form A was performed to assess substantial degradation of (R)-5-carbamoylpyridin-3-yl-2-methyl-4-(3-(trifluoromethoxy)benzyl)piperazine-1-carboxylate in physiologically relevant media. A solution of (R)-5-carbamoylpyridin-3-yl-2-methyl-4-(3-(trifluoromethoxy)benzyl)piperazine-1-carboxylate (1 mg/mL) was prepared in acetonitrile/water (50/50 v/v). Test medium (1990 μL) was added to a vial. Test media evaluated included buffers pH 1-8, simulated gastric fluid (SGF), fasted state simulated intestinal fluid (FaSSIF), and fed state simulated intestinal fluid (FeSSIF). Stock solution (10 μL) was added to the vial containing the medium. This mixture was stirred to mix well and transferred to a HPLC vial, which was placed in the autosampler maintained at 37° C. The vial was injected repeatedly every 4 hr for 24 hr."}, "[4]": {"test": "Form A solubility study in FaSSIF-v2 and FeSSIF-v2 at 37° C.", "conditions": "for solubility at 2 h / solubility at 24 h / Final Form: 37° C.; for Final Form: residual solid by XRPD", "procedure": "Solubility was evaluated at 2 hr and 24 hr for Form A in FaSSIF-v2 and FeSSIF-v2 at 37° C. Approximately 40 mg of Form A sample was added in 2.0 mL of corresponding bio-medium to form a suspension, followed by shaking at 500 rpm at 37° C. After 2 hr and 24 hr, the supernatants were isolated by centrifugation (7000 rpm for 5 min) followed by filtration through […] PTFE membrane and were tested by HPLC concentration and pH. The residual solids were characterized by XRPD."}}}
{"smiles": "C[C@@H]1CN(Cc2cccc(OC(F)(F)F)c2)CCN1C(=O)Oc1cncc(C(N)=O)c1", "note": "[Form A, (R)-5-carbamoylpyridin-3-yl-2-methyl-4-(3-(trifluoromethoxy)benzyl)piperazine-1-carboxylate]", "values": [{"measurement": "pKa", "setting": "[1]", "result": 5.79}, {"measurement": "Thermodynamic stability relationship among forms A to E", "setting": "[2]", "result": "thermodynamically the most stable form"}, {"measurement": "Solution chemical stability data", "setting": "[3]; FaSSIF, 37° C., 0 hr", "result": 100.0}, {"measurement": "Solution chemical stability data", "setting": "[3]; FaSSIF, 37° C., 4 hr", "result": 100.6}, {"measurement": "Solution chemical stability data", "setting": "[3]; FaSSIF, 37° C., 8 hr", "result": 100.2}, {"measurement": "Solution chemical stability data", "setting": "[3]; FaSSIF, 37° C., 12 hr", "result": 100.5}, {"measurement": "Solution chemical stability data", "setting": "[3]; FaSSIF, 37° C., 16 hr", "result": 100.3}, {"measurement": "Solution chemical stability data", "setting": "[3]; FaSSIF, 37° C., 20 hr", "result": 100.0}, {"measurement": "Solution chemical stability data", "setting": "[3]; FaSSIF, 37° C., 24 hr", "result": 100.0}, {"measurement": "Solution chemical stability data", "setting": "[3]; FeSSIF, 37° C., 0 hr", "result": 100.0}, {"measurement": "Solution chemical stability data", "setting": "[3]; FeSSIF, 37° C., 4 hr", "result": 99.6}, {"measurement": "Solution chemical stability data", "setting": "[3]; FeSSIF, 37° C., 8 hr", "result": 100.2}, {"measurement": "Solution chemical stability data", "setting": "[3]; FeSSIF, 37° C., 12 hr", "result": 99.7}, {"measurement": "Solution chemical stability data", "setting": "[3]; FeSSIF, 37° C., 16 hr", "result": 99.6}, {"measurement": "Solution chemical stability data", "setting": "[3]; FeSSIF, 37° C., 20 hr", "result": 99.8}, {"measurement": "Solution chemical stability data", "setting": "[3]; FeSSIF, 37° C., 24 hr", "result": 99.7}, {"measurement": "Solution chemical stability data", "setting": "[3]; SGF, 37° C., 0 hr", "result": 100.0}, {"measurement": "Solution chemical stability data", "setting": "[3]; SGF, 37° C., 4 hr", "result": 100.2}, {"measurement": "Solution chemical stability data", "setting": "[3]; SGF, 37° C., 8 hr", "result": 100.1}, {"measurement": "Solution chemical stability data", "setting": "[3]; SGF, 37° C., 12 hr", "result": 99.2}, {"measurement": "Solution chemical stability data", "setting": "[3]; SGF, 37° C., 16 hr", "result": 99.7}, {"measurement": "Solution chemical stability data", "setting": "[3]; SGF, 37° C., 20 hr", "result": 100.4}, {"measurement": "Solution chemical stability data", "setting": "[3]; SGF, 37° C., 24 hr", "result": 99.6}, {"measurement": "Solution chemical stability data", "setting": "[3]; pH = 1, 37° C., 0 hr", "result": 100.0}, {"measurement": "Solution chemical stability data", "setting": "[3]; pH = 1, 37° C., 4 hr", "result": 99.6}, {"measurement": "Solution chemical stability data", "setting": "[3]; pH = 1, 37° C., 8 hr", "result": 100.3}, {"measurement": "Solution chemical stability data", "setting": "[3]; pH = 1, 37° C., 12 hr", "result": 100.3}, {"measurement": "Solution chemical stability data", "setting": "[3]; pH = 1, 37° C., 16 hr", "result": 99.9}, {"measurement": "Solution chemical stability data", "setting": "[3]; pH = 1, 37° C., 20 hr", "result": 101.9}, {"measurement": "Solution chemical stability data", "setting": "[3]; pH = 1, 37° C., 24 hr", "result": 100.5}, {"measurement": "Solution chemical stability data", "setting": "[3]; pH = 3, 37° C., 0 hr", "result": 100.0}, {"measurement": "Solution chemical stability data", "setting": "[3]; pH = 3, 37° C., 4 hr", "result": 99.8}, {"measurement": "Solution chemical stability data", "setting": "[3]; pH = 3, 37° C., 8 hr", "result": 99.8}, {"measurement": "Solution chemical stability data", "setting": "[3]; pH = 3, 37° C., 12 hr", "result": 98.5}, {"measurement": "Solution chemical stability data", "setting": "[3]; pH = 3, 37° C., 16 hr", "result": 99.3}, {"measurement": "Solution chemical stability data", "setting": "[3]; pH = 3, 37° C., 20 hr", "result": 99.6}, {"measurement": "Solution chemical stability data", "setting": "[3]; pH = 3, 37° C., 24 hr", "result": 99.5}, {"measurement": "Solution chemical stability data", "setting": "[3]; pH = 5.0, 37° C., 0 hr", "result": 100.0}, {"measurement": "Solution chemical stability data", "setting": "[3]; pH = 5.0, 37° C., 4 hr", "result": 100.9}, {"measurement": "Solution chemical stability data", "setting": "[3]; pH = 5.0, 37° C., 8 hr", "result": 101.7}, {"measurement": "Solution chemical stability data", "setting": "[3]; pH = 5.0, 37° C., 12 hr", "result": 99.9}, {"measurement": "Solution chemical stability data", "setting": "[3]; pH = 5.0, 37° C., 16 hr", "result": 100.7}, {"measurement": "Solution chemical stability data", "setting": "[3]; pH = 5.0, 37° C., 20 hr", "result": 99.9}, {"measurement": "Solution chemical stability data", "setting": "[3]; pH = 5.0, 37° C., 24 hr", "result": 99.6}, {"measurement": "Solution chemical stability data", "setting": "[3]; pH = 6.8, 37° C., 0 hr", "result": 100.0}, {"measurement": "Solution chemical stability data", "setting": "[3]; pH = 6.8, 37° C., 4 hr", "result": 100.2}, {"measurement": "Solution chemical stability data", "setting": "[3]; pH = 6.8, 37° C., 8 hr", "result": 100.8}, {"measurement": "Solution chemical stability data", "setting": "[3]; pH = 6.8, 37° C., 12 hr", "result": 100.1}, {"measurement": "Solution chemical stability data", "setting": "[3]; pH = 6.8, 37° C., 16 hr", "result": 100.0}, {"measurement": "Solution chemical stability data", "setting": "[3]; pH = 6.8, 37° C., 20 hr", "result": 99.6}, {"measurement": "Solution chemical stability data", "setting": "[3]; pH = 6.8, 37° C., 24 hr", "result": 99.0}, {"measurement": "Solution chemical stability data", "setting": "[3]; pH = 8.0, 37° C., 0 hr", "result": 100.0}, {"measurement": "Solution chemical stability data", "setting": "[3]; pH = 8.0, 37° C., 4 hr", "result": 101.3}, {"measurement": "Solution chemical stability data", "setting": "[3]; pH = 8.0, 37° C., 8 hr", "result": 100.5}, {"measurement": "Solution chemical stability data", "setting": "[3]; pH = 8.0, 37° C., 12 hr", "result": 99.7}, {"measurement": "Solution chemical stability data", "setting": "[3]; pH = 8.0, 37° C., 16 hr", "result": 100.1}, {"measurement": "Solution chemical stability data", "setting": "[3]; pH = 8.0, 37° C., 20 hr", "result": 98.7}, {"measurement": "Solution chemical stability data", "setting": "[3]; pH = 8.0, 37° C., 24 hr", "result": 99.4}, {"measurement": "solubility at 2 h", "setting": "[4]; FaSSIF-v2, thermodynamic from solid, FaSSIF (pH 6.5), 2 hr, final pH 6.5", "result": 63, "unit": "µg/mL"}, {"measurement": "solubility at 24 h", "setting": "[4]; FaSSIF-v2, thermodynamic from solid, FaSSIF (pH 6.5), 24 hr, final pH 6.6", "result": 63, "unit": "µg/mL"}, {"measurement": "Form change after solubility evaluation (XRPD patterns)", "setting": "[4]; FaSSIF-v2 and FeSSIF-v2, 37° C., 2 hr and 24 hr", "result": "no form change was observed"}, {"measurement": "solubility at 2 h", "setting": "[4]; FeSSIF-v2, thermodynamic from solid, FeSSIF (pH 5.8), 2 hr, final pH 5.9", "result": 1000, "unit": "µg/mL"}, {"measurement": "solubility at 24 h", "setting": "[4]; FeSSIF-v2, thermodynamic from solid, FeSSIF (pH 5.8), 24 hr, final pH 6.0", "result": 1100, "unit": "µg/mL"}, {"measurement": "Final Form", "setting": "[4]; FaSSIF (pH 6.5), 2 hr", "result": "Form A"}, {"measurement": "Final Form", "setting": "[4]; FaSSIF (pH 6.5), 24 hr", "result": "Form A"}, {"measurement": "Final Form", "setting": "[4]; FeSSIF (pH 5.8), 2 hr", "result": "Form A"}, {"measurement": "Final Form", "setting": "[4]; FeSSIF (pH 5.8), 24 hr", "result": "Form A"}]}
